Experimental findings from patent US20090221082A1, “Microfluidic Evaporators And Determining Physical And/Or Chemical Properties Of Chemical Compounds Therewith” (Rhodia Operations, priority 2005, published 2009) are described below.

This series can be described thus: Evaporation-induced nucleation and crystal growth of KCl aqueous solutions in microchannel fingers. The class given is physicochemical. The source says:
The devices used are two-layer PDMS on glass Microsystems (FIG. 1). The microchannels (flowing channel(s)) of the bottom layer are filled with the solution of interest, while air is circulated through the microchannels (evaporation chamber) of the top layer so as to remove the water that pervaporates through the thin membrane of PDMS that separate the two networks where they overlap (thickness e in the 10-30 μm range). Many combinations of geometries for the bottom and top networks can be envisaged. We focus here on the simple “finger” geometry of FIG. 1, a dead end (blind extremity) channel of rectangular cross section (height h, width w, length L) connected to a larger (millimetric) feeding reservoir containing the solution to be concentrated. A terminal section of length L0<L (typically mms to cms) is covered by the water removal network. The operation principle is simple: water in the bottom channel pervaporates through the thin membrane, which induces a compensating flow from the reservoir and concentration of solutes at the finger tip. […]
FIG. 11: Top: view of the chip with 15 microchannels with different evaporation lengths L0 (the bottom of the frame is the end of the evaporation zone). […] Crystal growth is then monitored xf(t). […]

Consider `[Cl-].[K+]` [KCl, potassium chloride], for which the nucleation concentration cc (KCl aqueous solution, at this temperature) was 4.0 ± 0.5 M. Besides, the “solute concentration cx in the growing crystal (crystal density)” value (from initial crystal growth rate and mass conservation, Te=800±50 s) came to 20 ± 2 M.
